Patent US20250163122A1, “COMPOSITIONS AND METHODS FOR TREATING AIRWAY MUCUS DYSFUNCTION” (BOARD OF REGENTS, THE UNIVERSITY OF TEXAS SYSTEM, priority 2022, published 2025)
Where a SMILES comes first, the peptide text is derived from it. Bridges are numbered along the chain shown (N, C = ends). [ ]: non-standard residue; d: D form. S5 = C=CCCC[C@](C)(N)C(=O)O

How the values were obtained:
[1] = test system: neuronal SNAREs only; experiment: Single vesicle content mixing assay, neuronal SNAREs only (VAMP2 vesicles); type: biochemical; details: 10 μM peptide; raw count
Source text: For single vesicle content mixing assay, the lipid composition of the SV, SG, VAMP2, or VAMP8 vesicles was phosphatidylcholine (PC) (48%), phosphatidylethanolamine (PE) (20%), phosphatidylserine (PS) (12%), and cholesterol (20%); for both the neuronal and airway PM vesicles the lipid composition was Brain Total Lipid Extract supplemented 3.5 mol % PIP2, and 0.1 mol % biotinylated phosphatidylethanolamine (PE). The reconstitution method for neuronal PM and SV vesicles was described in detail previously (see Lai et al., 2017; Kyoung et al., 2011; and Lai et al., 2014). The same methods were used for airway PM, SG, VAMP2, and VAMP8 vesicles. […] A 3-5 fold excess of SNAP-25A or SNAP-23 (with respect to Stx1A or Stx3) and 3.5 mol % PIP2 were added to the protein-lipid mixture for neuronal or airway PM vesicles. […] For the preparation of SV, SG, VAMP2, or VAMP8 vesicles for single vesicle content mixing assay, 50 mM sulforhodamine B (Thermo Fisher Scientific) was added to the protein-lipid mixture. The vesicles subsequently formed during size exclusion chromatography using a Sepharose CL-4B column, packed under near constant pressure by gravity with a peristaltic pump (GE Healthcare) in a 5.5 ml column with a 5 ml bed volume that was equilibrated with buffer V (20 mM HEPES, pH 7.4, 90 mM NaCl) supplemented with 20 μM EGTA and 0.1% 2-mercaptoethanol. The eluent was subjected to dialysis into 21 of detergent-free buffer V supplemented with 20 μM EGTA, 0.1% 2-mercaptoethanol, 5 g of Bio-beads SM2 (Bio-Rad) and 0.8 g/L Chelex 100 resin (Bio-Rad). After 4 hours, the buffer was exchanged with 21 of fresh buffer V supplemented with 20 μM EGTA, 0.1% 2-mercaptoethanol and Bio-beads, and the dialysis continued for another 12 h (overnight). […] For ensemble lipid mixing assay, the reconstitution method is the same as that for the single vesicle content mixing assay, except that 50 mM sulforhodamine B was omitted for all the steps. Single vesicle content mixing experiments. All single vesicle fusion and single molecule experiments were performed on a prism-type total internal reflection fluorescence (TIRF) microscope using 532 nm (green) laser (CrystaLaser) excitation. Two observation channels were created by a 640 nm single-edge dichroic […]36, Shemrock): one channel was used for the fluorescence emission intensity of the content dyes and the other channel for that of the Cy5 dye that are part of the injected Ca^2+-solution. The two channels were recorded on two adjacent rectangular areas (45×90 m^2) of a charge-coupled device (CCD) camera (iXon+DV […], Andor Technology). The imaging data were recorded with the […] software developed by Taekjip Ha, Johns Hopkins University, Baltimore. Flow chambers were assembled by creating a “sandwich” consisting of a quartz slide and a glass coverslip that were both coated with polyethylene glycol (PEG) molecules consisting 0.1% (w/v) biotinylated-PEG except when stated otherwise, and using double-sided tape to create up to five flow-chambers. The single vesicle content mixing assay described in Lai et al. (2014) was used to monitor vesicle-vesicle association, Ca^2+-independent, and Ca^2+-triggered fusion. The surface of the quartz slides was passivated by coating the surface with polyethylene glycol (PEG) molecules which alleviated non-specific binding of vesicles. […]

[2] = test system: neuronal SNAREs and Syt1; experiment: Ensemble lipid mixing assay, neuronal PM and SV vesicles; type: biochemical; details: for effect on ensemble lipid mixing: with or without Ca2+, peptide concentration-dependent
Source text: Vesicle reconstitution. For the ensemble lipid mixing assay, the lipid composition of the SV vesicles was phosphatidylcholine (PC) (46%), phosphatidylethanolamine (PE) (20%), phosphatidylserine (PS) (12%), cholesterol (20%), and 1,1′-dioctadecyl-3,3,3′,3′-tetramethylindodicarbocyanine perchlorate (DiD) (Invitrogen) (2%); for the both neuronal and airway PM vesicles the lipid composition was Brain Total Lipid Extract supplemented 3.5 mol % PIP2, 0.1 mol % biotinylated phosphatidylethanolamine (PE) and 1,1′-dioctadecyl-3,3,3′,3′-tetramethylindocarbocyanine perchlorate (DiI) (Invitrogen). All the lipids are from Avanti Polar Lipids.
A 3-5 fold excess of SNAP-25A or SNAP-23 (with respect to Stx1A or Stx3) and 3.5 mol % PIP2 were added to the protein-lipid mixture for neuronal or airway PM vesicles. […] For the preparation of SV, SG, VAMP2, or VAMP8 vesicles for single vesicle content mixing assay, 50 mM sulforhodamine B (Thermo Fisher Scientific) was added to the protein-lipid mixture. The vesicles subsequently formed during size exclusion chromatography using a Sepharose CL-4B column, packed under near constant pressure by gravity with a peristaltic pump (GE Healthcare) in a 5.5 ml column with a ˜5 ml bed volume that was equilibrated with buffer V (20 mM HEPES, pH 7.4, 90 mM NaCl) supplemented with 20 μM EGTA and 0.1% 2-mercaptoethanol. The eluent was subjected to dialysis into 21 of detergent-free buffer V supplemented with 20 μM EGTA, 0.1% 2-mercaptoethanol, 5 g of Bio-beads SM2 (Bio-Rad) and 0.8 g/L Chelex 100 resin (Bio-Rad). After 4 hours, the buffer was exchanged with 21 of fresh buffer V supplemented with 20 μM EGTA, 0.1% 2-mercaptoethanol and Bio-beads, and the dialysis continued for another 12 h (overnight). […] For ensemble lipid mixing assay, the reconstitution method is the same as that for the single vesicle content mixing assay, except that 50 mM sulforhodamine B was omitted for all the steps.
Bulk lipid mixing experiments with neuronal synaptic proteins. Protein-reconstituted neuronal PM and SV vesicles were mixed at a molar ratio of 1:1, both at 0.1 mM lipid concentration. Lipid mixing is measured by monitoring the fluorescent emission (670 nm) of the DiD dyes in the SV vesicles by FRET using 530 nm laser light excitation of the DiI dyes in neuronal PM vesicles. The fluorescence intensity was monitored in two channels at 570 nm and 670 nm, respectively. Fluorescence changes were recorded with a Varian Cary Eclipse model fluorescence spectrophotometer using a quartz cell of 100 μl with a 5 mm path length. All measurements were performed at 35° C.

In the case of CC[C@H](C)[C@H](NC(=O)[C@]1(C)CCCC=CCCC[C@](C)(NC(=O)[C@H](CCC(=O)O)NC(=O)[C@H](CCC(=O)O)NC(C)=O)C(=O)N[C@@H](CCCCN)C(=O)N[C@@H](CC(=O)O)C(=O)N[C@@H](C)C(=O)N1)C(=O)N[C@@H](CCCNC(=N)N)C(=O)N[C@@]1(C)CCCC=CCCC[C@@](C)(C(=O)N[C@@H](CC(=O)O)C(=O)N[C@@H](CCC(=O)O)C(=O)N[C@@H](CCC(N)=O)C(=O)N[C@@H](CS)C(N)=O)NC(=O)[C@H](CCSC)NC(=O)[C@H](C(C)C)NC(=O)[C@H](CC(C)C)NC1=O [SP9, Ac-EE(S5)KDA(S5)IR(S5)LVM(S5)DEQC-amide] (Ac-EE[S5]KDA[S5]IR[S5]LVM[S5]DEQC-NH2; staple 3-7, 10-14), the “Ca2+ independent fusion events” value [1] is reported as 336 and the “effect on ensemble lipid mixing” value [2] is reported as “substantially inhibited”.
In the case of “Ac-SKD(S5)GIR(S5)LV(S5)LDE(S5)GEQL-amide (Ac-SKD[S5]GIR[S5]LV[S5]LDE[S5]GEQL-NH2; staple 11-15, 4-8; SMILES CC[C@H](C)[C@@H]1NC(=O)CNC(=O)[C@@](C)(NC(=O)[C@H](CC(=O)O)NC(=O)[C@H](CCCCN)NC(=O)[C@H](CO)NC(C)=O)CCCC=CCCC[C@@](C)(C(=O)N[C@@H](CC(C)C)C(=O)N[C@H](C(=O)N[C@@]2(C)CCCC=CCCC[C@@](C)(C(=O)NCC(=O)N[C@@H](CCC(=O)O)C(=O)N[C@@H](CCC(N)=O)C(=O)N[C@@H](CC(C)C)C(N)=O)NC(=O)[C@H](CCC(=O)O)NC(=O)[C@H](CC(=O)O)NC(=O)[C@H](CC(C)C)NC2=O)C(C)C)NC(=O)[C@H](CCCNC(=N)N)NC1=O) [SP10]”, the “Ca2+ independent fusion events” value [1] is reported as 341 and the “effect on ensemble lipid mixing” value [2] is reported as “substantially inhibited”.
“Ac-SKD(S5)GIR(S5)LVMLDE(S5)GEQ(S5)DR-amide (Ac-SKD[S5]GIR[S5]LVMLDE[S5]GEQ[S5]DR-NH2; staple 15-19, 4-8; SMILES CC[C@H](C)[C@@H]1NC(=O)CNC(=O)[C@@](C)(NC(=O)[C@H](CC(=O)O)NC(=O)[C@H](CCCCN)NC(=O)[C@H](CO)NC(C)=O)CCCC=CCCC[C@@](C)(C(=O)N[C@@H](CC(C)C)C(=O)N[C@H](C(=O)N[C@@H](CCSC)C(=O)N[C@@H](CC(C)C)C(=O)N[C@@H](CC(=O)O)C(=O)N[C@@H](CCC(=O)O)C(=O)N[C@@]2(C)CCCC=CCCC[C@@](C)(C(=O)N[C@@H](CC(=O)O)C(=O)N[C@@H](CCCNC(=N)N)C(N)=O)NC(=O)[C@H](CCC(N)=O)NC(=O)[C@H](CCC(=O)O)NC(=O)CNC2=O)C(C)C)NC(=O)[C@H](CCCNC(=N)N)NC1=O) [SP1]” was tested, and the “Ca2+ independent fusion events” value [1] was 245 and the “effect on ensemble lipid mixing” value [2] was “substantially inhibited”.
With “Ac-SKDA(S5)IRT(S5)VM(S5)DEQ(S5)EQL-amide (Ac-SKDA[S5]IRT[S5]VM[S5]DEQ[S5]EQL-NH2; staple 12-16, 5-9; SMILES CC[C@H](C)[C@@H]1NC(=O)[C@@](C)(NC(=O)[C@H](C)NC(=O)[C@H](CC(=O)O)NC(=O)[C@H](CCCCN)NC(=O)[C@H](CO)NC(C)=O)CCCC=CCCC[C@@](C)(C(=O)N[C@H](C(=O)N[C@@H](CCSC)C(=O)N[C@@]2(C)CCCC=CCCC[C@@](C)(C(=O)N[C@@H](CCC(=O)O)C(=O)N[C@@H](CCC(N)=O)C(=O)N[C@@H](CC(C)C)C(N)=O)NC(=O)[C@H](CCC(N)=O)NC(=O)[C@H](CCC(=O)O)NC(=O)[C@H](CC(=O)O)NC2=O)C(C)C)NC(=O)[C@H]([C@@H](C)O)NC(=O)[C@H](CCCNC(=N)N)NC1=O) [SP4]” the “Ca2+ independent fusion events” value [1] was 356 and the “effect on ensemble lipid mixing” value [2] was “substantially inhibited”.
For “EESKDAGIRTLVMLDEQGEQLD [Peptide P0, non-stapled SNAP-25A fragment used as a control, reference compound]”, the “Ca2+ independent fusion events” value [1] was 104, the “effect on Ca2+-triggered ensemble lipid mixing” value [2] was “little effect” and the “effect on Ca2+-independent ensemble lipid mixing” value ([2]; 10 μM and 100 μM peptide) was “little effect”.
